{
  "source": "patent US10913744B2",
  "about": "“LRRK2 inhibitors and methods of making and using the same” (Dana-Farber Cancer Institute, Inc., priority 2015, dated 2021)",
  "key": {"[1]": {"tested_on": "PINK", "test": "Dundee profiling"}, "[2]": {"biological_target": "ASK1 (Homo sapiens (Human), UniProt Q99683)", "sequence (Q99683 whole entry, species assumed)": "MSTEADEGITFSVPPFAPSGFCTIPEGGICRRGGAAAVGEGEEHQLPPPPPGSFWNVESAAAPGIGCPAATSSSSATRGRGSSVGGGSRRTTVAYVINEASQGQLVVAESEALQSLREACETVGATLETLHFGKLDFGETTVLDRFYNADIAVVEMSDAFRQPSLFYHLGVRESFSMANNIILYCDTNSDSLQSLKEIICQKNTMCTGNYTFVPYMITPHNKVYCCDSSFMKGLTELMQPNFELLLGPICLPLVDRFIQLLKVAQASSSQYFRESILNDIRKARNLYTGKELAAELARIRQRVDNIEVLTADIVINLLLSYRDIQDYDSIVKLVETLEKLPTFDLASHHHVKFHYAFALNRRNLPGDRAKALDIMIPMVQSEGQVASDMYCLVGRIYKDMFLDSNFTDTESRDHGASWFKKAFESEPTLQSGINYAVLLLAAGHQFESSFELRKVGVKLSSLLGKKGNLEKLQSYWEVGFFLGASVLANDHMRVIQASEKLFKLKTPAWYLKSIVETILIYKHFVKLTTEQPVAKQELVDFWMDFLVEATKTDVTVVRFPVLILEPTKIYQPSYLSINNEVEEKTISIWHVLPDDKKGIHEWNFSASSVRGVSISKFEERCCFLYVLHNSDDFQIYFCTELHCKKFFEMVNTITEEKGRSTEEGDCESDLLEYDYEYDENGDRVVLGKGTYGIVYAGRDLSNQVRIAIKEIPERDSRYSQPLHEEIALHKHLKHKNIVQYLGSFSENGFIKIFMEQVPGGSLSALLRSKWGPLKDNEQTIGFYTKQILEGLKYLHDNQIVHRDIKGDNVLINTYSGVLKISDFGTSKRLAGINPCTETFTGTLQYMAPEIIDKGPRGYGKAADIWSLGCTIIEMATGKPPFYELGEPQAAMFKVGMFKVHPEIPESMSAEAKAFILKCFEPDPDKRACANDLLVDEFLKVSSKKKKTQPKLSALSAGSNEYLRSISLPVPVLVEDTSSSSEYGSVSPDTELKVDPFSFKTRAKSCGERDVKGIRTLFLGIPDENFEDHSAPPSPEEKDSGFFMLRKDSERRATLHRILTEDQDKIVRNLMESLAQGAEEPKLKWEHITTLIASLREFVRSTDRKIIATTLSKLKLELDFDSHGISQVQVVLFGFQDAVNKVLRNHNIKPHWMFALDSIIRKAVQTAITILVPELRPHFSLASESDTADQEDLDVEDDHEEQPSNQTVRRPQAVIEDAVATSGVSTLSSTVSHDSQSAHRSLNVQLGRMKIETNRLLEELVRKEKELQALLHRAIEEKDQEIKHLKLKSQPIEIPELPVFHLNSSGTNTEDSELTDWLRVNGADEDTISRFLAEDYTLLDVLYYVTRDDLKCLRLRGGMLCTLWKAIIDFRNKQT", "test": "Dundee profiling"}, "[3]": {"biological_target": "MAP4K3 (Homo sapiens (Human), UniProt Q8IVH8)", "sequence (Q8IVH8 whole entry, species assumed)": "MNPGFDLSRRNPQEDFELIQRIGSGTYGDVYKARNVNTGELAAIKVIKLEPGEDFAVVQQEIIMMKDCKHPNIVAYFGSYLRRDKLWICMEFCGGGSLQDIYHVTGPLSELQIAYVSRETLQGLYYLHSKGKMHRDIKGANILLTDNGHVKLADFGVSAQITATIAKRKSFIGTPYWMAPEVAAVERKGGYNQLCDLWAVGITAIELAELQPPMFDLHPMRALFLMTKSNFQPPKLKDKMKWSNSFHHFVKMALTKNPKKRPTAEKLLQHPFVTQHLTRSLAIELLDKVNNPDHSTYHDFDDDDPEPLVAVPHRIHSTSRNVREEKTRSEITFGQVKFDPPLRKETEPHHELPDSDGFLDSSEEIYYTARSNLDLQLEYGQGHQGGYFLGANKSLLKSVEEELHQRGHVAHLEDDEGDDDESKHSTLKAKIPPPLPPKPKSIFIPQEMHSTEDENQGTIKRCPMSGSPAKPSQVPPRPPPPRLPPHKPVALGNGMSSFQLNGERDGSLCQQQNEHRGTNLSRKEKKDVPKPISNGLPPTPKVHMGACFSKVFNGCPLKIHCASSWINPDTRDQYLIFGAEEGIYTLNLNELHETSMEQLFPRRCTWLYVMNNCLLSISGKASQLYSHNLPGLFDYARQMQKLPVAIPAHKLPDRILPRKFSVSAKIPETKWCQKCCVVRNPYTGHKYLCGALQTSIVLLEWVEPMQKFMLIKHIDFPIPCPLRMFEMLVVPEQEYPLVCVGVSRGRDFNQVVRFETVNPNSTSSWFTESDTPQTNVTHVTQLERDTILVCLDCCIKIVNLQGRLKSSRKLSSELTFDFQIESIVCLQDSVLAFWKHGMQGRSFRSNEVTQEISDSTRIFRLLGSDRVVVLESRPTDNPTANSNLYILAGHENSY", "test": "Dundee profiling"}, "[4]": {"biological_target": "ROCK2 (Homo sapiens (Human), UniProt O75116)", "test": "Dundee profiling"}, "[5]": {"biological_target": "wild-type GFP-LRRK2 (Homo sapiens (Human), UniProt Q5S007)", "test": "Ser910/Ser935 phosphorylation immunoblot in HEK293 cells", "assay_type": "cell-based", "details": "90 min", "experimental": "(§1) FIG. 2A-2D show inhibition of LRRK2 by Compound 18. HEK293 cells stably expressing FIG. 2A: wild-type GFP-LRRK2, FIG. 2B: GFP-LRRK2[G2019S], FIG. 2C: GFP-LRRK2[G2019S+A2016T], and FIG. 2D: GFP-LRRK2[A2016T] were treated with dimethylsulfoxide (DMSO) or increasing concentrations of Compound 18 for 90 min (1 μM of LRRK2-IN-1 was used as a control). Cell lysates were subjected to immunoblotting for detection of LRRK2 phosphorylated at Ser910 and Ser935 and for total LRRK2.\n(§2) HEK293 and Swiss 3T3 cells were cultured in DMEM (Dulbecco's Modified Eagle's medium) supplemented with 10% FBS (fetal bovine serum), 2 mM glutamine and 1× penicillin/streptomycin solution. HEK-293 T-Rex cell lines were cultured in DMEM supplemented with 10% (v/v) FBS and 2 mM glutamine, lx penicillin/streptomycin solution, 15 μg/ml blastocidin and 100 μg/ml hygromycin. T-Rex cultures were induced to express the indicated protein by inclusion of 0.1 μg/ml doxycycline in the culture medium for 24-48 hr. […] Protein concentrations were determined following centrifugation of the lysate at 16,000×g at 4° C. for 20 minutes using the Bradford method with BSA as the standard. […]\n(§3) As there are no validated direct phosphorylation substrates of LRRK2, phosphorylation of Ser910 and Ser935, two residues whose phosphorylation is known to be dependent upon LRRK2 kinase activity, was monitored."}, "[6]": {"biological_target": "GFP-LRRK2[G2019S] (Homo sapiens (Human), UniProt Q5S007, G2019S)", "test": "Ser910/Ser935 phosphorylation immunoblot in HEK293 cells", "assay_type": "cell-based", "details": "90 min", "experimental": "as §1, §2, §3"}, "[7]": {"biological_target": "BTK (Homo sapiens (Human), UniProt Q06187)", "sequence (Q06187 whole entry, looked up, species assumed)": "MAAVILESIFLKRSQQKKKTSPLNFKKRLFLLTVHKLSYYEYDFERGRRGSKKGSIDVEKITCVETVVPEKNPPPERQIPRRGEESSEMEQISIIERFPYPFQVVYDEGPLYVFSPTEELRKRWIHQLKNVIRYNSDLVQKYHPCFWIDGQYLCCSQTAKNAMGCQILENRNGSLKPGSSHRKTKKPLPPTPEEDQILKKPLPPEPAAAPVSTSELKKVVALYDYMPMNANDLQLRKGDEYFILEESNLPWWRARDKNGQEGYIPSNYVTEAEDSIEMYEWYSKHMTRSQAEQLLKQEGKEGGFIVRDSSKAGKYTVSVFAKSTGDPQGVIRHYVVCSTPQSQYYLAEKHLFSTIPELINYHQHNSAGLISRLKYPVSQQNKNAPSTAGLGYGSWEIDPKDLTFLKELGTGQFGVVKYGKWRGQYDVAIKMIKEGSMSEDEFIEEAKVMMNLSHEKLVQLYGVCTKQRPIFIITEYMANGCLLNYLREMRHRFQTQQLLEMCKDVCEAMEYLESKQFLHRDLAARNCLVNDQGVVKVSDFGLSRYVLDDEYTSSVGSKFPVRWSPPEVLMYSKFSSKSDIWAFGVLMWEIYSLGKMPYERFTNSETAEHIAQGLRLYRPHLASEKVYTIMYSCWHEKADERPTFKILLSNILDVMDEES", "test": "Dundee profiling"}, "[8]": {"tested_on": "CK2", "test": "Dundee profiling"}, "[9]": {"biological_target": "ULK3 (Homo sapiens (Human), UniProt Q6PHR2)", "test": "KinomeScan", "assay_type": "binding", "details": "1 uM"}, "[10]": {"biological_target": "TAO1 (Homo sapiens (Human), UniProt Q7L7X3)", "test": "Dundee profiling"}, "[11]": {"biological_target": "ITK (Homo sapiens (Human), UniProt Q08881)", "test": "KinomeScan", "assay_type": "binding", "details": "1 uM"}, "[12]": {"biological_target": "CK1γ2 (Homo sapiens (Human), UniProt P78368)", "sequence (P78368 whole entry)": "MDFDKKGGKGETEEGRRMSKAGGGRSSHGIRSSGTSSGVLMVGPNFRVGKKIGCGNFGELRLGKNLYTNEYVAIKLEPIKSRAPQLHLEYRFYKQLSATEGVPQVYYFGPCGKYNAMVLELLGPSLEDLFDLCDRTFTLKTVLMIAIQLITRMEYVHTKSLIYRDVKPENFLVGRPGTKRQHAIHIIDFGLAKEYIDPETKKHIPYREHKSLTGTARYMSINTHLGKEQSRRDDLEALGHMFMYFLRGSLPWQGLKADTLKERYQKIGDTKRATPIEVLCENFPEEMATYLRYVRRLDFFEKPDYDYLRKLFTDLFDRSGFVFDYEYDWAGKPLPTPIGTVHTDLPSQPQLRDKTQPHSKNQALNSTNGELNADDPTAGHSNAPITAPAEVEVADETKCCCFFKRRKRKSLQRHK", "test": "Dundee profiling"}, "[13]": {"biological_target": "EPH-A4 (Homo sapiens (Human), UniProt P54764)", "test": "Dundee profiling"}, "[14]": {"biological_target": "MAP4K5 (Homo sapiens (Human), UniProt Q9Y4K4)", "test": "Dundee profiling"}, "[15]": {"biological_target": "NEK6 (Homo sapiens (Human), UniProt Q9HC98)", "test": "Dundee profiling"}, "[16]": {"biological_target": "TYK2 (JH2domain-pseudokinase) (Homo sapiens (Human), UniProt P29597)", "test": "KinomeScan", "assay_type": "binding", "details": "1 uM"}, "[17]": {"biological_target": "GCK (Homo sapiens (Human), UniProt Q12851)", "sequence (Q12851 whole entry)": "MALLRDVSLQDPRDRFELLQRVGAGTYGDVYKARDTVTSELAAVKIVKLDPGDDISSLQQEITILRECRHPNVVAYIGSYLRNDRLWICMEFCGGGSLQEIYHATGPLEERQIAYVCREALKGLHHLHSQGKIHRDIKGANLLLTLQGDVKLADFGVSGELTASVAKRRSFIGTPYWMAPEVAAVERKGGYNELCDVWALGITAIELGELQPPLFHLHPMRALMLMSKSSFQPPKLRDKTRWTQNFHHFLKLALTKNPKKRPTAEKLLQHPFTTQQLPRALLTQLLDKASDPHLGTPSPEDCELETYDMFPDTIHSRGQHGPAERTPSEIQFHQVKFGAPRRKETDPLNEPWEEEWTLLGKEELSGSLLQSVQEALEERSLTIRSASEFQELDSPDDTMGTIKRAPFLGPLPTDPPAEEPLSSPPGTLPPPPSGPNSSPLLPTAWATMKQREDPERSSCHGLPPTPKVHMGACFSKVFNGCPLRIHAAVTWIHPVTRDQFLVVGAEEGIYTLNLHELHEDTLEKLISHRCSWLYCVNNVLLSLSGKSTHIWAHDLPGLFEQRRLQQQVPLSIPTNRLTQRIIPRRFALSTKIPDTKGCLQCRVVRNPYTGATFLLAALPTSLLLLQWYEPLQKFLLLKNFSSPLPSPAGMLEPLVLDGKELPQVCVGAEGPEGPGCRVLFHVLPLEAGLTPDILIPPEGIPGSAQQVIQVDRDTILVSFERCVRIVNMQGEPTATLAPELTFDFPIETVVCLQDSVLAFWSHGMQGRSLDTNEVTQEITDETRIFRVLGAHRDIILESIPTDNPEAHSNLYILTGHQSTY", "test": "Dundee profiling"}, "[18]": {"biological_target": "MLK3 (Homo sapiens (Human), UniProt Q16584)", "sequence (Q16584 whole entry, looked up, species assumed)": "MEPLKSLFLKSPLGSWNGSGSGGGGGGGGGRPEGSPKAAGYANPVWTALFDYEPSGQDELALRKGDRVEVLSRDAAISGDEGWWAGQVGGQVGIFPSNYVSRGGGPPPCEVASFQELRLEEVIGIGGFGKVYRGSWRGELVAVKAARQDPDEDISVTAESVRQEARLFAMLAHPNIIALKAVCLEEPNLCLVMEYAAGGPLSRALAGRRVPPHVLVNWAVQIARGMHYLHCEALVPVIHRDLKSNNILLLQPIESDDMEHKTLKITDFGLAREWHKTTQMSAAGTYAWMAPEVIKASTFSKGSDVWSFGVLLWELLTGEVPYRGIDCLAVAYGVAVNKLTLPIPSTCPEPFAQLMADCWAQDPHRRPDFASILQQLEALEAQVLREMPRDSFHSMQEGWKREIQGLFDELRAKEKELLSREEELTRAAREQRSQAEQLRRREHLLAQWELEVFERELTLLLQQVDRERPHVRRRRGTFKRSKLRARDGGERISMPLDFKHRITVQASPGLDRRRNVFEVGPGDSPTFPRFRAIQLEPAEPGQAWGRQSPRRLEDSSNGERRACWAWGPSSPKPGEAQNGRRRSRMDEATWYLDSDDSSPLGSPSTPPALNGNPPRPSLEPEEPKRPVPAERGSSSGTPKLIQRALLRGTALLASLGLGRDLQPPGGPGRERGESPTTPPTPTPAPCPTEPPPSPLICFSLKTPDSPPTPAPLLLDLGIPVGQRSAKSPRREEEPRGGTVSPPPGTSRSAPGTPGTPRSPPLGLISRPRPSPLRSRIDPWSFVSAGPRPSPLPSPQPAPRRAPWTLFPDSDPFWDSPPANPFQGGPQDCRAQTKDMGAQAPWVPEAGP", "test": "Dundee profiling"}, "[19]": {"biological_target": "MARK4 (Homo sapiens (Human), UniProt Q96L34)", "test": "KinomeScan", "assay_type": "binding", "details": "1 uM"}, "[20]": {"details": "read-out: percent remaining enzymatic activity, I1, 1 μM"}, "[21]": {"details": "read-out: percent remaining enzymatic activity, I10"}, "[22]": {"details": "read-out: percent remaining enzymatic activity"}},
  "note": "Where two headings read alike, the source gives them in different places.",
  "data": [
    {"smiles": "CNc1nc(Nc2ccc(C(=O)N3CCOCC3)cc2OC)nc2[nH]cc(Cl)c12", "note": "[Compound 18, (4-((5-chloro-4-(methylamino)-7H-pyrrolo[2,3-d]pyrimidin-2-yl)amino)-3-methoxyphenyl)(morpholino)methanone]", "values": [
      {"measurement": "percent remaining enzymatic activity", "setting": "[1]; I1, 1 μM", "result": 105, "unit": "%"},
      {"measurement": "percent remaining enzymatic activity", "setting": "[1]; I10", "result": 89, "unit": "%"},
      {"measurement": "remaining activity at 1 µM", "setting": "[2]; [20]", "result": 56, "unit": "%"},
      {"measurement": "remaining activity at 1 µM", "setting": "[2]; [21]", "result": 10, "unit": "%"},
      {"measurement": "percent remaining enzymatic activity", "setting": "[3]; I10", "result": 41, "unit": "%"},
      {"measurement": "remaining activity at 1 µM", "setting": "[3]; [22]", "result": 98, "unit": "%"},
      {"measurement": "remaining activity at 1 µM", "setting": "[4]; [20]", "result": 113, "unit": "%"},
      {"measurement": "remaining activity at 1 µM", "setting": "[4]; [21]", "result": 101, "unit": "%"},
      {"measurement": "concentration giving substantial dephosphorylation of Ser910 and Ser935", "setting": "[5]", "result": "approximately 0.3"},
      {"measurement": "concentration giving substantial dephosphorylation of Ser910 and Ser935", "setting": "[6]", "result": "approximately 0.3"},
      {"measurement": "percent remaining enzymatic activity", "setting": "[7]; I10", "result": 126, "unit": "%"},
      {"measurement": "remaining activity at 1 µM", "setting": "[7]; [22]", "result": 116, "unit": "%"},
      {"measurement": "percent remaining enzymatic activity", "setting": "[8]; I1, 1 μM", "result": 94, "unit": "%"},
      {"measurement": "percent remaining enzymatic activity", "setting": "[8]; I10", "result": 70, "unit": "%"},
      {"measurement": "KinomeScan value", "setting": "[9]", "result": 96},
      {"measurement": "remaining activity at 1 µM", "setting": "[10]; [20]", "result": 113, "unit": "%"},
      {"measurement": "remaining activity at 1 µM", "setting": "[10]; [21]", "result": 100, "unit": "%"},
      {"measurement": "KinomeScan value", "setting": "[11]", "result": 88},
      {"measurement": "percent remaining enzymatic activity", "setting": "[12]; I10", "result": 45, "unit": "%"},
      {"measurement": "remaining activity at 1 µM", "setting": "[12]; [22]", "result": 100, "unit": "%"},
      {"measurement": "remaining activity at 1 µM", "setting": "[13]; [20]", "result": 107, "unit": "%"},
      {"measurement": "remaining activity at 1 µM", "setting": "[13]; [21]", "result": 102, "unit": "%"},
      {"measurement": "remaining activity at 1 µM", "setting": "[14]; [20]", "result": 110, "unit": "%"},
      {"measurement": "remaining activity at 1 µM", "setting": "[14]; [21]", "result": 92, "unit": "%"},
      {"measurement": "remaining activity at 1 µM", "setting": "[15]; [20]", "result": 101, "unit": "%"},
      {"measurement": "remaining activity at 1 µM", "setting": "[15]; [21]", "result": 83, "unit": "%"},
      {"measurement": "KinomeScan value", "setting": "[16]", "result": 100},
      {"measurement": "remaining activity at 1 µM", "setting": "[17]; [20]", "result": 86, "unit": "%"},
      {"measurement": "remaining activity at 1 µM", "setting": "[17]; [21]", "result": 41, "unit": "%"},
      {"measurement": "percent remaining enzymatic activity", "setting": "[18]; I10", "result": 35, "unit": "%"},
      {"measurement": "remaining activity at 1 µM", "setting": "[18]; [22]", "result": 78, "unit": "%"},
      {"measurement": "KinomeScan value", "setting": "[19]", "result": 82}
    ]}
  ]
}
